From PubChem BioAssay AID248 (DTP/NCI, 2004)
Inconclusive results and toxic doses are left out. Rule as the data show it: active = T/C of 150% or more; inactive = T/C below 125%.

System: L1210 leukemia ip in BDF1 mice, survival T/C
Assay: NCI In Vivo Anticancer Drug Screen. Data for tumor model L1210 Leukemia (intraperitoneal) in B6D2F1 (BDF1) mice
Conditions: endpoint: mean survival time, higher = longer survival
Procedure, shortened: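 Value reflects the ratio of survival in compound-treated mice to survival in vehicle-treated controls, with both groups carrying the same transplanted tumor.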

[1] = dose: 100.0 mg/kg/injection, schedule: Q01DX009 (ip), vehicle: saline
[2] = dose: 200.0 mg/kg/injection, schedule: Q01DX009 (ip), vehicle: saline
[3] = dose: 400.0 mg/kg/injection, schedule: Q01DX009 (ip), vehicle: saline
[4] = dose: 100.0 mg/kg/injection, schedule: Q01DX001 (ip), vehicle: saline with Tween-80
[5] = dose: 50.0 mg/kg/injection, schedule: Q01DX001 (ip), vehicle: carboxymethylcellulose (CMC)
[6] = dose: 100.0 mg/kg/injection, schedule: Q01DX001 (ip), vehicle: carboxymethylcellulose (CMC)
[7] = dose: 200.0 mg/kg/injection, schedule: Q01DX001 (ip), vehicle: carboxymethylcellulose (CMC)
[8] = dose: 400.0 mg/kg/injection, schedule: Q01DX001 (ip), vehicle: carboxymethylcellulose (CMC)
[9] = dose: 100.0 mg/kg/injection, schedule: Q01DX009 (ip), vehicle: Klucel (hydroxypropylcellulose) (HPC)
[10] = dose: 200.0 mg/kg/injection, schedule: Q01DX009 (ip), vehicle: Klucel (hydroxypropylcellulose) (HPC)
[11] = dose: 400.0 mg/kg/injection, schedule: Q01DX009 (ip), vehicle: Klucel (hydroxypropylcellulose) (HPC)
[12] = dose: 100.0 mg/kg/injection, schedule: Q04DX003 (ip), vehicle: saline with Tween-80
[13] = dose: 200.0 mg/kg/injection, schedule: Q04DX003 (ip), vehicle: saline with Tween-80
[14] = dose: 400.0 mg/kg/injection, schedule: Q04DX003 (ip), vehicle: saline with Tween-80

Measured: T/C

Cc1ccc(N(CCCl)CCCl)cc1NC(=O)c1ccccc1
inactive: dose: 100.0 mg/kg/injection, schedule: Q01DX001 (ip), vehicle: other 102 % of control | dose: 200.0 mg/kg/injection, schedule: Q01DX001 (ip), vehicle: other 102 % of control | dose: 400.0 mg/kg/injection, schedule: Q01DX001 (ip), vehicle: other 109 % of control

C=CCOc1ccnc(OCC=C)n1
inactive: [1] 108 % of control | dose: 100.0 mg/kg/injection, schedule: Q04DX003 (ip), vehicle: saline 105 % of control | [2] 101 % of control | dose: 200.0 mg/kg/injection, schedule: Q04DX003 (ip), vehicle: saline 102 % of control | [3] 87 % of control | dose: 400.0 mg/kg/injection, schedule: Q04DX003 (ip), vehicle: saline 105 % of control

O/N=C1\CN2CCC1CC2
inactive: dose: 18.75 mg/kg/injection, schedule: Q04DX003 (ip), vehicle: saline 104 % of control | dose: 25.0 mg/kg/injection, schedule: Q01DX001 (ip), vehicle: saline with Tween-80 97 % of control | dose: 37.5 mg/kg/injection, schedule: Q04DX003 (ip), vehicle: saline 98 % of control | dose: 50.0 mg/kg/injection, schedule: Q01DX001 (ip), vehicle: saline with Tween-80 97 % of control | dose: 75.0 mg/kg/injection, schedule: Q04DX003 (ip), vehicle: saline 102 % of control | [4] 102 % of control

CCCOC(=O)c1ccc(NCC(C)(C)[N+](=O)[O-])cc1
inactive: [1] 95 % of control | [2] 117 % of control | [3] 91 % of control

CN(C)c1ccc(S(=O)(=O)c2ccc(N(C)C)c([N+](=O)[O-])c2)cc1[N+](=O)[O-]
inactive: dose: 100.0 mg/kg/injection, schedule: Q04DX002 (ip), vehicle: DMSO 107 % of control | dose: 200.0 mg/kg/injection, schedule: Q04DX002 (ip), vehicle: DMSO 103 % of control | dose: 400.0 mg/kg/injection, schedule: Q04DX002 (ip), vehicle: DMSO 103 % of control

CCOCC1COC(c2ccc3c(c2)OCO3)O1 (centres undefined)
inactive: dose: 222.0 mg/kg/injection, schedule: Q01DX Z (ip), vehicle: methylcellulose (MC) 102 % of control | dose: 333.0 mg/kg/injection, schedule: Q01DX Z (ip), vehicle: methylcellulose (MC) 104 % of control | dose: 500.0 mg/kg/injection, schedule: Q01DX Z (ip), vehicle: methylcellulose (MC) 102 % of control

CC(=O)c1cccc2c(C(C)=O)cccc12
inactive: [5] 105 % of control | [6] 103 % of control | [7] 111 % of control | [8] 103 % of control

COc1ccc(COC(=O)Nc2cc(C(F)(F)F)ccc2Cl)cc1
inactive: [1] 100 % of control | [2] 107 % of control | [3] 105 % of control

NC(=O)N/N=C1/CCSc2ccc3c(c21)CCCC3
inactive: dose: 100.0 mg/kg/injection, schedule: Q01DX001 (ip), vehicle: Klucel (hydroxypropylcellulose) (HPC) 102 % of control | [9] 106 % of control | dose: 200.0 mg/kg/injection, schedule: Q01DX001 (ip), vehicle: Klucel (hydroxypropylcellulose) (HPC) 93 % of control | [10] 104 % of control | dose: 400.0 mg/kg/injection, schedule: Q01DX001 (ip), vehicle: Klucel (hydroxypropylcellulose) (HPC) 94 % of control | [11] 101 % of control

Cc1ccc(C(=O)C2CC2)c(C)c1
inactive: dose: 100.0 mg/kg/injection, schedule: Q01DX009 (ip), vehicle: saline with Tween-80 105 % of control | [12] 96 % of control | dose: 200.0 mg/kg/injection, schedule: Q01DX009 (ip), vehicle: saline with Tween-80 98 % of control | [13] 95 % of control | dose: 400.0 mg/kg/injection, schedule: Q01DX009 (ip), vehicle: saline with Tween-80 109 % of control | [14] 93 % of control

Cc1ccc(S(=O)(=O)Nc2cccc3cnccc23)cc1
inactive: [5] 96 % of control | [6] 105 % of control | [7] 102 % of control | [8] 105 % of control

O=[N+]([O-])c1ccc2c(c1)/C(=C1/c3cc(Br)ccc3-c3ccc([N+](=O)[O-])cc31)c1cc(Br)ccc1-2
inactive: [12] 87 % of control | [13] 97 % of control | [14] 92 % of control

Nc1ccc(S(=O)(=O)NS(=O)(=O)c2ccccc2)cc1
inactive: dose: 100.0 mg/kg/injection, schedule: Q01DX001 (ip), vehicle: saline 95 % of control | dose: 200.0 mg/kg/injection, schedule: Q01DX001 (ip), vehicle: saline 93 % of control | dose: 400.0 mg/kg/injection, schedule: Q01DX001 (ip), vehicle: saline 101 % of control

O=[N+]([O-])c1ccc(OCCCCOc2ccccc2)c(Cl)c1
inactive: dose: 100.0 mg/kg/injection, schedule: Q04DX003 (ip), vehicle: Klucel (hydroxypropylcellulose) (HPC) 95 % of control | dose: 200.0 mg/kg/injection, schedule: Q04DX003 (ip), vehicle: Klucel (hydroxypropylcellulose) (HPC) 96 % of control | dose: 400.0 mg/kg/injection, schedule: Q04DX003 (ip), vehicle: Klucel (hydroxypropylcellulose) (HPC) 91 % of control

CC(C)c1ccccc1SCC1=NCCN1
inactive: dose: 10.0 mg/kg/injection, schedule: Q04DX003 (ip), vehicle: Klucel (hydroxypropylcellulose) (HPC) 103 % of control | dose: 20.0 mg/kg/injection, schedule: Q04DX003 (ip), vehicle: Klucel (hydroxypropylcellulose) (HPC) 115 % of control

O=C1OC(=O)C2CC3OC3CC12 (centres undefined)
inactive: dose: 50.0 mg/kg/injection, schedule: Q01DX001 (ip), vehicle: saline sonified 106 % of control | dose: 100.0 mg/kg/injection, schedule: Q01DX001 (ip), vehicle: saline sonified 96 % of control | [12] 91 % of control | dose: 200.0 mg/kg/injection, schedule: Q01DX001 (ip), vehicle: saline sonified 93 % of control | [13] 94 % of control | [14] 108 % of control

C=CCc1ccc(C)c(C)c1O
inactive: dose: 100.0 mg/kg/injection, schedule: Q01DX009 (sc), vehicle: olive oil, sesame oil, peanut oil 101 % of control | dose: 100.0 mg/kg/injection, schedule: Q04DX003 (sc), vehicle: olive oil, sesame oil, peanut oil 99 % of control | dose: 200.0 mg/kg/injection, schedule: Q01DX009 (sc), vehicle: olive oil, sesame oil, peanut oil 101 % of control | dose: 200.0 mg/kg/injection, schedule: Q04DX003 (sc), vehicle: olive oil, sesame oil, peanut oil 97 % of control | dose: 400.0 mg/kg/injection, schedule: Q01DX009 (sc), vehicle: olive oil, sesame oil, peanut oil 101 % of control | dose: 400.0 mg/kg/injection, schedule: Q04DX003 (sc), vehicle: olive oil, sesame oil, peanut oil 91 % of control

Cc1ccc(S(=O)(=O)OCC(C)(C)NC(=O)c2ccc([N+](=O)[O-])cc2)cc1
inactive: [4] 91 % of control | dose: 200.0 mg/kg/injection, schedule: Q01DX001 (ip), vehicle: saline with Tween-80 105 % of control | dose: 400.0 mg/kg/injection, schedule: Q01DX001 (ip), vehicle: saline with Tween-80 91 % of control

Cc1ccc(Cl)cc1NC(=O)/C=C/c1ccccc1
inactive: [9] 104 % of control | [10] 104 % of control | [11] 102 % of control

CCCCC(F)C(Br)C(=O)O (centres undefined)
inactive: dose: 100.0 mg/kg/injection, schedule: Q04DX002 (ip), vehicle: saline with Tween-80 97 % of control | dose: 200.0 mg/kg/injection, schedule: Q04DX002 (ip), vehicle: saline with Tween-80 87 % of control | dose: 400.0 mg/kg/injection, schedule: Q04DX002 (ip), vehicle: saline with Tween-80 93 % of control

CC(=O)N(C)c1ccc(NC(=O)Nc2cccc(F)c2)cc1
inactive: dose: 12.5 mg/kg/injection, schedule: Q01DX009 (ip), vehicle: saline with Tween-80 104 % of control | dose: 25.0 mg/kg/injection, schedule: Q01DX009 (ip), vehicle: saline with Tween-80 105 % of control | dose: 50.0 mg/kg/injection, schedule: Q01DX009 (ip), vehicle: saline with Tween-80 96 % of control

c1ccc2nc3c(nc2c1)[nH]c1ccccc13
inactive: dose: 62.5 mg/kg/injection, schedule: Q01DX Z (ip), vehicle: carboxymethylcellulose (CMC) 94 % of control | dose: 125.0 mg/kg/injection, schedule: Q01DX Z (ip), vehicle: carboxymethylcellulose (CMC) 100 % of control | dose: 250.0 mg/kg/injection, schedule: Q01DX Z (ip), vehicle: carboxymethylcellulose (CMC) 95 % of control | dose: 500.0 mg/kg/injection, schedule: Q01DX Z (ip), vehicle: carboxymethylcellulose (CMC) 91 % of control

CN(C)c1ccc(C(=O)NO)cc1
inactive: [9] 97 % of control | [10] 105 % of control | [11] 100 % of control
